For data set [1], the system named is SKOV3 cells adhesion onto LP9 monolayers. The data set can be described thus: Cell adhesion to LP9 mesothelial monolayers, SKOV3. In kind it is cell-based. The settings on record: 25 μM. As to the method:
(§1) LP9 mesothelial cells added to clear-bottom 96-well plate at 12,000 cells/well were grown to confluency over 48 hours (h). OC cells were labeled with calcein AM and seeded at a density of 4×10^4 cells to monolayers of mesothelial cells and incubated for 1 h. Non-adherent cells were removed by washing with PBS.

The subject of data set [2] is OVCAR433 cells adhesion onto LP9 monolayers. The data set can be described thus: Cell adhesion to LP9 mesothelial monolayers, OVCAR433. The class given is cell-based. The settings on record: at concentrations >10 μM. As to the method:
as §1

Data set [3] has as its system OVCAR5 cells. Kind of data set: Wound-healing assay, OVCAR5. In kind it is cell-based, human. The settings on record: 8 μM, 24 hours. On the procedure: Wound Healing was Performed in 12-Well Plates Coated with 1 μg/Ml FN (Sigma, #1141) overnight at 4° C. OC cells were plated at a density of 2×10^5 cells/well in media containing 2% FBS. Under these conditions cells adhered on substrate, but cell proliferation was minimized. After 16 hours, the cell monolayer was scraped in straight line. Cell debris was removed and serum free media containing selected SMIs or control was replenished. For consistency during image acquisition, a reference point was marked close to the scratch mark and the plate was imaged under phase-contrast microscope at 0, 2, 6, 12 and 24 hours. Wound closure was assessed as the distance between the wound edges, calculated and quantified using the Image Pro-Express software. The percentage of wound closure was evaluated using the formula […]. The rate of migration (μm/h) of OC cells into the wound space was evaluated as the distance difference between wound edges at 0 and 24 h, divided by 24. The experiments were performed in duplicates.

The test system of another data set is SKOV3-GFP cells. Kind of data set: In vivo cell attachment to the peritoneum. On the set-up: species or system mice. The settings on record: for unattached OC cells recovered from the peritoneal cavity: NSG mice, ip, 10 μg/kg, 2 hours after injection.
Data set [4] concerns OVCAR5 cells. The data set can be described thus: Colony forming assay after priming, with paclitaxel. In kind it is cell-based, human. The settings on record: priming with 1 μM for 72 hours before 5 nM PTX. On the procedure:
(§2) After 72 h priming with either 1 μM MT-4, TG53 or vehicle (DMSO), 150 OVCAR5 cells were seeded in 60 mm dishes and treated or not with paclitaxel (PTX, Sigma). Colonies were allowed to form over 10 days, fixed in 4% PFA and stained with 0.4% crystal violet (MP Biomedicals). Colonies were counted, and analysis was performed using the ImageJ software ([…]).Spheroid cultures were carried out as previously described(Condello et al., 2015). Briefly, OC cells were resuspended in Mammocult complete medium (StemCell Technologies) supplemented with Mammocult Proliferation Supplements, heparin and hydrocortisone (StemCell Technologies) and seeded at a concentration of 10,000 cells/well in 96-well ultra-low attachment plates (Corning, Corning, N.Y., USA). After treatment with DMSO (control) or TG53 (1 μM) for 7 days, spheroids were counted and quantified by the CCK-8 assay. All assays were performed in four replicates and were repeated. For priming before PTX treatment, cells were manipulated as described for CFU assay and then seeded in 6-well low-attachment plate (Corning, #3473) at 7000 cells/mL/well and allowed to form spheroids in complete Mammocult media. Spheres were counted after ten days from 4 replicate wells. Two independent experiments were performed.

The test system of data set [5] is OVCAR5 cells. The data set can be described thus: Sphere forming assay after priming, with paclitaxel. The class given is cell-based, human. The settings on record: priming with 1 μM, with 5 nM PTX. On the procedure: as §2
Data set [6] relates to TG2 co-localization with integrin β1, p-FAK, c-Src, p-c-Src in SKOV3 cells. Kind of data set: Confocal IF co-localization analysis. The class given is cell-based. The settings on record: 1 μM. As to the method: In order to analyze cell adhesion complex proteins expression and localization upon early attachment, cells were treated as stated above and then seeded onto FN-coated cover slips for 30 minutes at 37° C. Samples were fixed in 4% p-formaldehyde (PFA) and permeabilized with 0.2% Triton-X-100. After blocking, focal contacts were identified by using anti-vinculin antibodies, activation of integrins signaling pathway was assessed by antibodies against phosphorylated focal adhesion kinase (FAK), while actin cytoskeleton was labeled by Alexa Fluor 488-conjugated phalloidin (Life Technologies, #A12379). Nuclei were stained with 1:10000 Hoechst (Thermo Scientific) and specimens were mounted in Prolong Gold anti-fadereagent (Life Technologies). Cells were analyzed by laser scanning using a Nikon A1RGaAsPConfocal Laser Microscope. For co-localization analyses, SKOV3 cells were treated with DMSO (control) or TG53 (1 μM) and plated on FN-coated chamber slides (BD Biosciences) for 72 hrs. […] Colocalization percentage was calculated by normalizing the pixels corresponding to Cy5 or Alexa Fluor 488 emissions to DAPI pixels in the same cell, followed by merging area of green with area of red and determination of average of overlap areas. A Student' t test was calculated to determine statistical significance of differences between drug treated and DMSO control treated cells.

Procedure for Tolerability in vivo: Three doses were administered 25, 50 and 100 mg/kg to cohorts of 3 mice. A) Average weights, B) average white blood cell counts (WBC), C) average hemoglobin (Hgb) and D) average platelet (Plt) counts measured 1 week after administration at the 3 doses (n=3).

For the compound `Cc1cc(N(C)C)nc(Nc2ccc(NC(=O)Cc3ccccc3)cc2)n1` [MT-4], in data set [1], the “SKOV3 cell binding to the mesothelial layer” value is recorded as “significantly decreased”. Moreover, the “OVCAR433 adhesion to the LP9 layer” value in data set [2] is “dose-dependent inhibitory effect”. Also, in the data set on OVCAR5 cells [3], the “motility (scratch repair)” value is “inhibited”. For the same compound, the “unattached OC cells recovered from the peritoneal cavity” value with SKOV3-GFP cells is “attached less efficiently”; in the data set on SKOV3-GFP cells (listed as MT4), “Increased numbers”. In the data set on SKOV3-GFP cells (nude mice, i.p., 2 hours), the “adhesion of cancer cells to the peritoneum” value is given as “prevented the adhesion”. Besides, the colony formation result in the data set with OVCAR5 cells [4] is on record as “diminished”. For the same compound, in the data set with OVCAR5 cells [5], the “cell proliferation as spheres” value was “more potently than PTX alone or PTX and TG53”.

For `COc1ccc(Cl)cc1C(=O)Nc1ccc(Nc2nc(C)cc(N(C)C)n2)cc1` [TG53], in data set [6], the “FAK and Src phosphorylation” value is on record as “marked decrease”; the “colocalization of TG2 with integrin β1, pFAK, c-Src and pSrc” value is on record as “significant decrease”. In “Tolerability in vivo” (WBC, Hgb, Plt 1 week after administration), the hematological toxicity result is “did not induce”. For the same compound, the tolerated dose result in the data set “Tolerability in vivo” (doses 25, 50 and 100 mg/kg) is on record as “up to 50 mg/kg”.

The values above are taken from patent US20210276960A1, “INHIBITORS OF TISSUE TRANSGLUTAMINASE 2 (TG2) AND USES THEREOF” (Northwestern University, priority 2020, published 2021).
